Assay results as given in ChEMBL document CHEMBL1914429, “Potent and selective 2-naphthylsulfonamide substituted hydroxamic acid inhibitors of matrix metalloproteinase-13” (Bioorg Med Chem Lett, 2011).

Experiments:
[1] = Clearance in rat at 5 mg/kg, po and 1 mg/kg, iv; assay type: ADME, organism-based; settings: in vivo
[2] = AUC in rat at 5 mg/kg, po; assay type: ADME, organism-based; design: dose 5 mg/kg, route oral; settings: plasma
[3] = target: 72 kDa type IV collagenase (Homo sapiens, UniProt P08253)
Chain of 72 kDa type IV collagenase (P08253 whole entry): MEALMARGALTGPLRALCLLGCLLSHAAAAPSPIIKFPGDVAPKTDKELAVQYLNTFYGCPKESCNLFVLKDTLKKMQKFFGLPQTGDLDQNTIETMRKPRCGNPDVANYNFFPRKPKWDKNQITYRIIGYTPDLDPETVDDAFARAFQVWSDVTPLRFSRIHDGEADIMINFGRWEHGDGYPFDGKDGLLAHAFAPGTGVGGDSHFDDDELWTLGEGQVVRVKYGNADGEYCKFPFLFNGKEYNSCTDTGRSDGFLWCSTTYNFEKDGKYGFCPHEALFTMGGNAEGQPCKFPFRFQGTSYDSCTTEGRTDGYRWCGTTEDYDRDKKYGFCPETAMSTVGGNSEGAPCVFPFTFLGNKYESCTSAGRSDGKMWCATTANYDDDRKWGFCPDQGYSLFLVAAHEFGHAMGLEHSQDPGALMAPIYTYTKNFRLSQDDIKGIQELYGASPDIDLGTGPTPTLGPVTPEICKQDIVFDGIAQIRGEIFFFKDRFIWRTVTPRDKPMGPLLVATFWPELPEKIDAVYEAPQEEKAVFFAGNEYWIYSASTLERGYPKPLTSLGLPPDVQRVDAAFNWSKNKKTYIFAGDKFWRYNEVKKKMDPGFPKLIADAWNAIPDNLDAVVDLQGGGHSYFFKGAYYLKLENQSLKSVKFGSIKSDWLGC

[4] = Half life in rat at 5 mg/kg, po and 1 mg/kg, iv; assay type: ADME, organism-based; settings: in vivo
[5] = Oral bioavailability in rat at 5 mg/kg; assay type: ADME, organism-based; settings: in vivo

| SMILES | clearance [1] [mL/min/kg] | AUC [2] [µM·h] | IC50 [3] [nM] | half-life [4] [min] | bioavailability [5] [%] |
| --- | --- | --- | --- | --- | --- |
| CC(C)[C@H](C(=O)NO)N(CCN(C)C)S(=O)(=O)c1ccc2ccccc2c1 | 233 | 0.27 | – | – | – |
| CC(C)CCN([C@@H](C(=O)NO)C(C)C)S(=O)(=O)c1ccc2sccc2c1 | 118 | 1.5 | 16 | – | – |
| CC(C)CCN([C@@H](C(=O)NO)C(C)C)S(=O)(=O)c1ccc2c(c1)OCCO2 | – | – | 3 | – | – |
| CC(C)CCN([C@@H](C(=O)NO)C(C)C)S(=O)(=O)c1ccc2c(c1)CCO2 | – | – | 10 | – | – |
| CC(C)CN([C@@H](C(=O)NO)C(C)C)S(=O)(=O)c1ccc2ccccc2c1 | – | – | 308 | – | – |
| CC(C)CCN([C@H](CO)C(=O)NO)S(=O)(=O)c1ccc2ccccc2c1 | 45 | 2.4 | – | – | – |
| CC(C)CCN([C@@H](C(=O)NO)C(C)(C)C)S(=O)(=O)c1ccc2ccccc2c1 | 26.7 | 7.2 | – | – | – |
| CC(C)[C@H](C(=O)NO)N(Cc1cccnc1)S(=O)(=O)c1ccc2ccccc2c1 | 107 | 0.55 | – | – | – |
| CC(C)CCN([C@@H](C(=O)NO)C(C)C)S(=O)(=O)c1ccc2ncccc2c1 | 18.3 | 4.6 | – | – | – |
| CC(C)CCN([C@@H](C(=O)NO)C(C)O)S(=O)(=O)c1ccc2ccccc2c1 (stereo not given in full) | 55 | 3.1 | – | – | – |
| CC(C)[C@H](C(=O)NO)N(CCc1ccccc1)S(=O)(=O)c1ccc2ccccc2c1 | 55 | 0.45 | – | – | – |
| CC(C)CCN([C@@H](C(=O)NO)C(C)C)S(=O)(=O)c1ccc2ccccc2n1 | 91.7 | 0.13 | 2050 | – | – |
| CC(C)CCN([C@@H](C(=O)NO)C(C)C)S(=O)(=O)c1ccc2ccccc2c1 | 40 | 1.5 | – | 342 | 23.8 |
| COc1ccc(S(=O)(=O)N(CCC(C)C)[C@@H](C(=O)NO)C(C)C)cc1OC | – | – | 30100 | – | – |
| CC(C)[C@H](C(=O)NO)N(Cc1ccncc1)S(=O)(=O)c1ccc2ccccc2c1 | 122 | 0.32 | – | – | – |
